# According to patent US20120264902A1 (The Regents of the University of Colorado, a body corporate, priority 2011, published 2012):
# Where two headings read alike, the source gives them in different places.
# Columns and labels:
# E. Coli BW25113 [1] = test: MIC evaluation general protocol, E. Coli anaerobic (Tables 7 and 9); type: cell-based; details: for MIC: Escherichia coli, read-out: MIC Assay Result (g/L 3-HP); for % Increase Over Control: MIC vs BW25113 in M9 without supplement
# Protocol: The minimum inhibitory concentration (MIC) was determined anerobically in a 96 well-plate format. […] Overnight cultures of strains were grown in triplicate in 5 mL LB (with antibiotic where appropriate). A 1% (v/v) inoculum was introduced into a 5 ml culture of M9 minimal media.
# (§1) For the above MIC evaluations, the final results are expressed in chemical agent concentrations determined by analysis of the stock solution by HPLC (i.e., see Subsection Mb).
# E. Coli Mach1-T1® = test: MIC of 3-HP, microaerobic, 96-well, MOPS minimal media (Examples 2 and 4); type: cell-based, Escherichia coli; details: supplement added to MOPS minimal media, 24 hours
# MACH1™-T1® E. Coli = test: IroK expression study, microaerobic MIC, MOPS minimal media, 1 mM IPTG; type: cell-based; details: IroK expressed from pKK223-3; data not shown
# Protocol: The two oligonucleotides were added in a 1:1 ratio and annealed according to standard methodology in a thermal cycler. Ligation of the annealed primer product with the pKK223-3 expression vector (SEQ ID NO:008, Pharmacia, Piscataway, N.J.) was performed with T4 Ligase (Invitrogen, Carlsbad, Calif.) and incubated at 25° C. overnight. The ligation product was then electroporated into competent MACH1™-T1®, plated on LB+ampicillan, and incubated at 37° C. for 24 hours. Plasmids were isolated and confirmed by purification and subsequent restriction digest and sequencing (Macrogen, Rockville, Md.). MICs were then determined corresponding to 1 mM IPTG induction.
# The minimum inhibitory concentration (MIC) was determined microaerobically in a 96 well-plate format. Overnight cultures of strains were grown in 5 mL LB (with antibiotic where appropriate). A 1% (v/v) inoculum was introduced into a 15 ml culture of MOPS minimal media. After the cells reached mid-exponential phase, the culture was diluted to an OD600 of 0.200. The cells were further diluted 1:20 and a 10 μL aliquot was used to inoculate each well of a 96 well plate (˜10^4 cells per well).
# [2] = Preparation of neutralized 3-HP stock solution (observation at neutral pH); type: physicochemical; details: pH 7, aqueous buffer
# Excerpt: (§2) 3-HP was obtained from TCI America (Portland, Oreg.). Significant acrylic acid and 2-oxydipropionic contamination was observed via HPLC analysis. Samples were subsequently treated by diethyl ether extraction to remove acrylic acid and a portion of the 2-oxydipropionic contaminants. Samples were then neutralized with 10 M NaOH to a final pH of 7.0. […] The working stock solution was used for the selection and MIC evaluations in this example.
# as §2, with “selection, growth rates” for “selection”
# B. subtilis = test: MIC evaluation general protocol, B. subtilis aerobic (Table 11); type: cell-based, Bacillus subtilis; details: B. subtilis 168, M9 + glu + trp, growth with 3-HP and the named supplement (label 3-HP = no supplement)
# Protocol: The minimum inhibitory concentration (MIC) was determined aerobically in a 96 well-plate format. […] Overnight cultures of strains were grown in triplicate in 5 mL LB (with antibiotic where appropriate). A 1% (v/v) inoculum was introduced into a 5 ml culture of M9 minimal media+glutamate.
# E. Coli K12 = type: cell-based, Escherichia coli; details: E. Coli K12, M9 minimal media, control or supplemented, aerobic, 24 hours
# Protocol: Overnight cultures of strains were grown in 5 ml LB (with antibiotic where appropriate) at 37° C. in a shaking incubator. A 1 v/v % was used to inoculate 10 mL of M9 minimal media. After the cells reached mid-exponential phase, the culture was diluted to an OD600 of 0.200. The cells were further diluted 1:20 and a 10 ul aliquot was used to inoculate each well (˜10^4 cells per well). […] The MIC endpoint is the lowest concentration of compound at which there was no visible growth.
# E. Coli BW25113 [3] = test: MIC evaluation general protocol, E. Coli aerobic (Tables 6 and 8); type: cell-based; details: for average MIC Assay Result (g/L 3-HP): MIC of 3-HP for strain BW25113 in M9 media with the named supplement(s); for % Increase Over Control: increase of 3-HP MIC vs BW25113 in M9 without supplement
# Protocol: The minimum inhibitory concentration (MIC) was determined aerobically in a 96 well-plate format. […] Overnight cultures of strains were grown in triplicate in 5 mL LB (with antibiotic where appropriate). A 1% (v/v) inoculum was introduced into a 5 ml culture of M9 minimal media.
# as §1
# [4] = test system: Yeast strains, S288 C background; test: Yeast anaerobic MIC evaluation (Tables 14 and 16); type: cell-based, Saccharomyces cerevisiae; details: for MIC: Saccharomyces cerevisiae, read-out: Average MIC Assay Result (g/L 3-HP)
# Protocol: The minimum inhibitory concentration (MIC) was determined anaerobically in a 96 well-plate format. […] A 1% (v/v) inoculum was introduced into a 5 ml culture of SD minimal media without vitamins. After the cells reached mid-exponential phase, the culture was diluted to an OD600 of 0.200. The cells were further diluted 1:5 and a 10 μL aliquot was used to inoculate each well of a 96 well plate (˜10^4 cells per well) to total volume of 100 uL. […] Plates were incubated for 72 hours at 30 C. […] Plates were sealed in biobag anaerobic chambers that contained gas generators for anaerobic conditions and incubated for 72 hours at 30 C.
# [5] = test system: Yeast strains, S288 C background; test: Yeast aerobic MIC evaluation (Tables 13 and 15); type: cell-based; details: Saccharomyces cerevisiae, read-out: Average MIC Assay Result (g/L 3-HP), S288C, SD media, aerobic, MIC of 3-HP with the named supplement (label 3-HP = no supplement)
# Protocol: The minimum inhibitory concentration (MIC) was determined aerobically in a 96 well-plate format. […] A 1% (v/v) inoculum was introduced into a 5 ml culture of SD minimal media without vitamins. After the cells reached mid-exponential phase, the culture was diluted to an OD600 of 0.200. The cells were further diluted 1:5 and a 10 μL aliquot was used to inoculate each well of a 96 well plate (˜10^4 cells per well) to total volume of 100 uL. […] Plates were incubated for 72 hours at 30 C.
# [6] = BW25113, M9 with supplements at Table 3 levels (or EZ Rich), anaerobic, 24 hours
compound,measurement,setting,value
CSCC[C@H](N)C(=O)O [Methionine],MIC,E. Coli BW25113 [1]; [6],42.8 g/L
same,% Increase Over Control,E. Coli BW25113 [1]; anaerobic,43%
N[C@@H](Cc1c[nH]c2ccccc12)C(=O)O [Tryptophan],MIC increases (3-HP) with supplementation,E. Coli Mach1-T1®,33%
"C=CC(=O)O [acrylic, acrylic acid]",MICs of other organic acids with IroK expression,MACH1™-T1® E. Coli,unchanged
C[C@@H](O)[C@H](N)C(=O)O [Threonine],MIC increases (3-HP) with supplementation,E. Coli Mach1-T1®,3%
"O=C(O)CCO [Strain 3-HP, 3-hydroxypropionic acid]",solubility,[2],> 35 mg/mL
same,Avg 24 hr ΔOD600,B. subtilis,0.04
Cl.NC1CCSC1=O (stereo not drawn) [homocysteine thiolactone hydrochloride],MIC increases (3-HP) with supplementation,E. Coli Mach1-T1®,60%
"O=C([O-])O.[Na+] [Bicarbonate, sodium bicarbonate]",Minimum inhibitory concentration (MIC) of 3-HP,E. Coli K12,30 mg/mL
CC(=O)O [acetic],MICs of other organic acids with IroK expression,MACH1™-T1® E. Coli,unchanged
"O=C(O)c1cccc(O)c1O [Dihydroxybenzoate, 2,3-dihydroxybenzoic acid]",average MIC Assay Result (g/L 3-HP),E. Coli BW25113 [3],35 g/L 3-HP
same,% Increase Over Control,E. Coli BW25113 [3],27%
same,MIC,E. Coli BW25113 [1]; [6],40 g/L
same,% Increase Over Control,E. Coli BW25113 [1]; anaerobic,33%
same,MIC increases (3-HP) with supplementation,E. Coli Mach1-T1®,33%
CCC(=O)C(=O)O [2-oxobutyrate],MIC increases (3-HP) with supplementation,E. Coli Mach1-T1®,7%
N[C@@H](CCS)C(=O)O [Homocysteine],average MIC Assay Result (g/L 3-HP),E. Coli BW25113 [3],30 g/L 3-HP
same,% Increase Over Control,E. Coli BW25113 [3],9%
same,% Increase Over Control,"[4]; S288C, SD media, anaerobic, MIC with supplement vs no supplement",7%
same,MIC,[4],40 g/L
N[C@@H](CO)C(=O)O [Serine],MIC,E. Coli BW25113 [1]; [6],32.1 g/L
same,MIC,[4],45 g/L
N[C@@H](CCO)C(=O)O [Homoserine],MIC,E. Coli BW25113 [1]; [6],30 g/L
same,% Increase Over Control,E. Coli BW25113 [1]; anaerobic,0%
same,MIC increases (3-HP) with supplementation,E. Coli Mach1-T1®,33%
Cc1ncc(CO)c(CO)c1O.Cl [pyridoxine hydrochloride],MIC increases (3-HP) with supplementation,E. Coli Mach1-T1®,0%
NCCCCN [Putrescine],MIC,E. Coli BW25113 [1]; [6],35 g/L
same,% Increase Over Control,E. Coli BW25113 [1]; anaerobic,17%
NC(=O)NCCC[C@H](N)C(=O)O [Citrulline (C)],MIC,[5],58 g/L
same,MIC,[4],97 g/L
CC[C@H](C)[C@H](N)C(=O)O [Isoleucine (B)],MIC,[4],38 g/L
O=C(O)C1=C[C@@H](O)[C@@H](O)[C@H](O)C1 [Shikimate (A)],MIC,[5],80 g/L
same,MIC,[4],60 g/L
NCCCC[C@H](N)C(=O)O [Lysine],MIC,"E. Coli BW25113 [1]; BW25113, 24 h",41.7 g/L
same,MIC,[4],45 g/L
Tetrahydrofolate,average MIC Assay Result (g/L 3-HP),E. Coli BW25113 [3],30 g/L 3-HP
same,% Increase Over Control,E. Coli BW25113 [3],9%
same,MIC Assay Result (g/L 3-HP),E. Coli BW25113 [1]; [6],40.0 g/L
same,% Increase Over Control,E. Coli BW25113 [1]; anaerobic,33%
NNC(=O)c1ccc(O)cc1 [p-hydroxybenzoic acid hydrazide],MIC increases (3-HP) with supplementation,E. Coli Mach1-T1®,33%
N[C@@H](Cc1ccc(O)cc1)C(=O)O [Tyrosine],MIC increases (3-HP) with supplementation,E. Coli Mach1-T1®,40%
N[C@@H](Cc1ccccc1)C(=O)O [Phenylalanine],MIC,E. Coli BW25113 [1]; [6],32.1 g/L
same,% Increase Over Control,E. Coli BW25113 [1]; anaerobic,7%
same,MIC increases (3-HP) with supplementation,E. Coli Mach1-T1®,33%
Nc1ccc(C(=O)O)cc1 [p-aminobenzoate],MIC increases (3-HP) with supplementation,E. Coli Mach1-T1®,7%
CC(O)C(=O)O (stereo not drawn) [lactic],MICs of other organic acids with IroK expression,MACH1™-T1® E. Coli,unchanged
NCCCCNCCCN [Spermidine],MIC,E. Coli BW25113 [1]; [6],35 g/L
same,% Increase Over Control,E. Coli BW25113 [1]; anaerobic,17%
